Measurements as given in ChEMBL document CHEMBL3431459, “Roche carnitine palmitoyltransferase modulator screening data (supplementary data associated with the publication CHEMBL2216752)”.
Converted amounts (≈) assume the structure as drawn.

What was measured:
[1] = target: T1, Carnitine O-palmitoyltransferase 2, mitochondrial (Rattus norvegicus, UniProt P18886); assay: (§1) SUPPLEMENTARY: Inhibition of Carnitine palmitoyltransferase 2
T1 sequence (P18886 whole entry): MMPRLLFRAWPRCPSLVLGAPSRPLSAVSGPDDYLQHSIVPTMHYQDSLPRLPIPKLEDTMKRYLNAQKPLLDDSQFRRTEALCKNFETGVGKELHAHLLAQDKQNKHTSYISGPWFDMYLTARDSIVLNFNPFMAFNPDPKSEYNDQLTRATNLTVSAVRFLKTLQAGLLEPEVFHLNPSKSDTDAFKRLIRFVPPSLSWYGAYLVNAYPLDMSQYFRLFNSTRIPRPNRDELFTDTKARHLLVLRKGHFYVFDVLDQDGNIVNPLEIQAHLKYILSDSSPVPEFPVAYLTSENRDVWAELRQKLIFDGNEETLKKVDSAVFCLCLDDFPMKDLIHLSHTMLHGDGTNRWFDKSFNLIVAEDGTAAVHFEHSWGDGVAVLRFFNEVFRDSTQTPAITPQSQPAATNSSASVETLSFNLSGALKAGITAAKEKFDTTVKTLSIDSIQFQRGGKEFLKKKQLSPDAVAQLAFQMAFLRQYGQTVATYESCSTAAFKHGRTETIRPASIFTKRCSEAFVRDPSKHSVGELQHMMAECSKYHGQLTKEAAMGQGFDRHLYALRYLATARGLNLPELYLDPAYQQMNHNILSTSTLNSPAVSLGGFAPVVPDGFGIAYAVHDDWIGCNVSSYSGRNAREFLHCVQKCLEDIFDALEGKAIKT

[2] = target: T2, Carnitine O-palmitoyltransferase 2, mitochondrial (Homo sapiens, UniProt P23786); assay: as §1
T2 sequence (P23786 whole entry): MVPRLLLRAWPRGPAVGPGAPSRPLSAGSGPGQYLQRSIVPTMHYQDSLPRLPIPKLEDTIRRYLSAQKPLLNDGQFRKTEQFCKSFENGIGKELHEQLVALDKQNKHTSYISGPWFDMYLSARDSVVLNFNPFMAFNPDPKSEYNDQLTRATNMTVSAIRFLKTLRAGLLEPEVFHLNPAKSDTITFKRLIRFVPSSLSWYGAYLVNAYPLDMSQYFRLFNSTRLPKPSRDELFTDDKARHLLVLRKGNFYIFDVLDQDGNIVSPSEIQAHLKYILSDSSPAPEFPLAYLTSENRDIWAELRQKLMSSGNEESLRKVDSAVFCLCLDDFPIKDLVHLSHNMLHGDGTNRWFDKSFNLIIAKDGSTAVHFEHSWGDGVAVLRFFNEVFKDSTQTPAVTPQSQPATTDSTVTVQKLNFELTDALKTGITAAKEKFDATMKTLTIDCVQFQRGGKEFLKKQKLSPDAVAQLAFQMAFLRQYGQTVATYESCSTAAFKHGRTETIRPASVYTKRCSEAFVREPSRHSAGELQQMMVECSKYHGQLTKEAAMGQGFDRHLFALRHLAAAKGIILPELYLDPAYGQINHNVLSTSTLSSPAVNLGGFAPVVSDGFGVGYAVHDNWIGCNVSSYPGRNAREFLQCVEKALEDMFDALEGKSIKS

[3] = SUPPLEMENTARY: Lyophilisation Solubility Assay (LYSA); assay type: physicochemical; conditions: read-out: Kinetic_solubility
[4] = target: T3, Carnitine O-palmitoyltransferase 1, liver isoform (Homo sapiens, UniProt P50416); assay: SUPPLEMENTARY: Inhibition of Carnitine palmitoyltransferase 1, liver isoform
T3 sequence (P50416 whole entry): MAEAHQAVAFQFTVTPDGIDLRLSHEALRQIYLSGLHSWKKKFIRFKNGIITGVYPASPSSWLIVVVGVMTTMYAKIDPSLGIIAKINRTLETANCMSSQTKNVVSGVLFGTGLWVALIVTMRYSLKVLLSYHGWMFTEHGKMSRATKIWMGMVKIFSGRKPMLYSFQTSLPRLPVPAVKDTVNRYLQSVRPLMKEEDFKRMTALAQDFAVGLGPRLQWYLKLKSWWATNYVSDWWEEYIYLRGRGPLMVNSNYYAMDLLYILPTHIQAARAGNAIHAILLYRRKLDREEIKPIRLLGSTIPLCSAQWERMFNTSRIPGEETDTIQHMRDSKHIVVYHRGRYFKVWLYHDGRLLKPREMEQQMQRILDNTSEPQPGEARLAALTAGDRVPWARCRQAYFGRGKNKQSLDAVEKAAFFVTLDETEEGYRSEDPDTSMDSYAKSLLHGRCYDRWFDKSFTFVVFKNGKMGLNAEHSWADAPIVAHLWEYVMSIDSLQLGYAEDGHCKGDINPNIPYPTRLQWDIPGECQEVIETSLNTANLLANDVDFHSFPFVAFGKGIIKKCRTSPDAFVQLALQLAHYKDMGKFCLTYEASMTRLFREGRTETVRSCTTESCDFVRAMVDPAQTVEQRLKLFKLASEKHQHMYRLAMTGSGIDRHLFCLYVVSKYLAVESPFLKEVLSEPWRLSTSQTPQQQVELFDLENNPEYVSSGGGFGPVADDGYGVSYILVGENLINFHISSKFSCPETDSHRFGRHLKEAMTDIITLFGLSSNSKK

[5] = SUPPLEMENTARY: PAMPA permeability assay; assay type: physicochemical; conditions: read-out: Permeability
[6] = target: T4, Carnitine O-palmitoyltransferase 1, muscle isoform (Homo sapiens, UniProt Q92523); assay: SUPPLEMENTARY: Inhibition of Carnitine palmitoyltransferase 1, muscle isoform; parameters: species or system Muscle tissue
T4 sequence (Q92523 whole entry): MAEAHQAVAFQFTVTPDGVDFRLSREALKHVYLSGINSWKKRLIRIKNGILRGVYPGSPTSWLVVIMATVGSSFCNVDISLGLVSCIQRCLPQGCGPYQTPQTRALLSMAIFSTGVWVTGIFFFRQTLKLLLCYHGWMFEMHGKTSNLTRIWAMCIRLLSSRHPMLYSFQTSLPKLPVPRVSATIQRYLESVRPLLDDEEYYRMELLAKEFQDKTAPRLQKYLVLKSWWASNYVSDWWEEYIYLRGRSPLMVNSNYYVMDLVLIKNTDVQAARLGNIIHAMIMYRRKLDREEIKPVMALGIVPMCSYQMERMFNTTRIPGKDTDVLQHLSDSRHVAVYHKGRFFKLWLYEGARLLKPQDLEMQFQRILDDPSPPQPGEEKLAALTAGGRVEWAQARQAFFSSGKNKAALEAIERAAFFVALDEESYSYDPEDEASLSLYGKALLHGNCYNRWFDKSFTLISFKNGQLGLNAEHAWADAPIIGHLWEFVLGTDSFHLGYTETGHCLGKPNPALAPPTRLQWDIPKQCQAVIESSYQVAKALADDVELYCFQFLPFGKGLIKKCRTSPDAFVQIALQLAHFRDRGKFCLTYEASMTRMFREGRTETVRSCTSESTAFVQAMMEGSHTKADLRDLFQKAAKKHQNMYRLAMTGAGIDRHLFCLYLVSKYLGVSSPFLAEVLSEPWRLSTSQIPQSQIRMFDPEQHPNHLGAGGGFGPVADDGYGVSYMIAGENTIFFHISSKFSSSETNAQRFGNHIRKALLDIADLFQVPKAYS

[7] = SUPPLEMENTARY: Lipophilicity (log D) Determination by high-throughput shake-flask; assay type: physicochemical; conditions: octanol/water

IC50 [1] [µM] | IC50 [2] [µM] | solubility kinetic [3] [µg/mL] | IC50 [4] [µM] | Papp [5] [×10⁻⁶ cm/s] | IC50 [6] [µM] | logD [7] | Structure (SMILES)
> 100 | > 100 | 26 (≈ 49.6 µM) | 0.0505 | 1.62 | 0.423 | -0.01 | COc1ccc(Cl)cc1S(=O)(=O)N1CCOc2ccc(C(=O)Nc3nc(CC(=O)O)cs3)cc21
> 100 | > 100 | 25 (≈ 46 µM) | 0.331 | 1.36 | 1.87 | 1.83 | COc1ccc(Cl)cc1CN1C(=O)OC(C)(C)c2ccc(C(=O)Nc3ccc(CC(=O)O)c(Cl)c3)cc21
> 100 | > 100 | 43 (≈ 122 µM) | 2.55 | 7.12 | > 100 | 2.51 | O=C(NCc1ccccc1)[C@H]1CCCCN1C(=O)COc1ccccc1
6.84 | 2.67 | 112 (≈ 306 µM) | 1.94 | 9.1 | > 100 | 2.62 | CN(Cc1ccccc1)C(=O)[C@H]1CCCCN1C(=O)COc1ccccc1
> 100 | > 100 | 509 (≈ 985 µM) | 0.375 | 3.17 | 2.29 | 0.65 | COc1ccc(Cl)cc1S(=O)(=O)N1COc2c(C)cc(C(=O)Nc3ccc(CC(=O)O)cc3)cc21
> 100 | > 100 | 44 (≈ 91.5 µM) | 0.294 | 1.48 | 13 | 0.06 | COc1ccc(Cl)cc1CN1C(=O)OCc2ccc(C(=O)Nc3ccc(CC(=O)O)cc3)cc21
45.6 | 7.15 | 175 (≈ 382 µM) | 0.824 | 4.46 | > 100 | 1.41 | NS(=O)(=O)c1ccc2c(c1)CN(C(=O)[C@H]1CCCCN1C(=O)COc1ccccc1)CC2
> 100 | 34.2 | > 467 | 0.315 | 8.06 | > 100 | 1.47 | O=C(c1nc([C@H]2CCCCN2C(=O)COc2ccccc2)no1)N1CCOCC1
> 100 | > 100 | > 549 | 0.0614 | 2.48 | 1.44 | 0.02 | COc1ccc(Cl)cc1S(=O)(=O)N(C)c1cccc(C(=O)Nc2nc(CC(=O)O)cs2)c1
> 100 | > 100 | < 1 | > 10 | 7.49 | > 100 | 4 | CCc1ccc(CCOc2ccc(CC3SC(=O)NC3=O)cc2)nc1 (configuration not stated) [PIOGLITAZONE]
> 100 | > 100 | 92 (≈ 257 µM) | > 10 | 7.65 | > 100 | 2.49 | CN(CCOc1ccc(CC2SC(=O)NC2=O)cc1)c1ccccn1 (configuration not stated) [ROSIGLITAZONE]
